Among the data in patent US20230373937A1, “INHIBITORS OF SPINSTER HOMOLOG 2 (SPNS2) FOR USE IN THERAPY” (University of Virginia Patent Foundation, priority 2020, published 2023) are IC50 values, retold here.

One may read the IC50 as the concentration that gives 50% inhibition.

Counter-ions that a name gives are not always drawn. Where only a bound is given, the exact number is not on record here.

The target of this test is T1, SPNS2 (Mus musculus, UniProt Q91VM4).
T1 construct: expressed in transfected cells; host or cells: HeLa or U937 cells
T1 sequence (Q91VM4 1-549): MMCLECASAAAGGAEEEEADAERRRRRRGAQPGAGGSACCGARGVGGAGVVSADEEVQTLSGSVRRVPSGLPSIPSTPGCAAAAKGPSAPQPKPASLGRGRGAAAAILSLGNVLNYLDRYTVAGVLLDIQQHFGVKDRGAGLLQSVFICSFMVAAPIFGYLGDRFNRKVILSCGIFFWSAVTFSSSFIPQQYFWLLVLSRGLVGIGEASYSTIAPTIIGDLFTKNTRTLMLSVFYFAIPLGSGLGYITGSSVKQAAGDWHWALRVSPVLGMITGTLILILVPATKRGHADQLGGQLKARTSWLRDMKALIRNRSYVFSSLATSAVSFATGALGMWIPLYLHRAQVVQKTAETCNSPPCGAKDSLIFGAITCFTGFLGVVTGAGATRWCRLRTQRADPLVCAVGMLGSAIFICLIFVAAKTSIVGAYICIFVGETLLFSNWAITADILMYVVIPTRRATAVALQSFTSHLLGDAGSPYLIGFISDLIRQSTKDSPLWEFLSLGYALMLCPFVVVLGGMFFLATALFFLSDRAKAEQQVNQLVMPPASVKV
As to the kind of experiment: S1P transporter assay: S1P release from whole cells expressing SPNS2. Format: cell-based. The following applies: HeLa or U937 cells expressing mouse SPNS2; 18 hours; S1P in media measured by LC-MS; read-out: IC50 (in vitro inhibition against SPNS2). As to the method: Transporter assays are vectorial and therefore require measurement of the transported analyte in different compartments. The S1P transporter SPNS2 only exports S1P, which obviates measuring uptake of S1P into transporter-expressing cells. Thus, transporter activity was determined by quantifying S1P release from whole cells expressing SPNS2. SPNS2 inhibitor potency was assessed using whole cell assays. HeLa or U937 cells expressing mouse SPNS2 were used to determine inhibitor potency (IC50). Cells were plated onto 12 well plates and assayed when the cell monolayers became confluent. Cell growth media (RPMI-1640 containing 10% fetal bovine serum) was replaced with 2 mL of serum-free media (RPMI-1640) containing fatty acid free bovine serum albumin (BSA) (0.2% w/v) and supplemented with 4-deoxypyridoxine (DOP) (1 mM), NaF (2 mM), Na3VO4 (0.2 mM) to inhibit S1P degradation. Test articles (1×10-9-1×10^-4 M) were assayed in duplicate or triplicate. After 18 hours, media was collected, an internal recovery standard (0.005 mL of 5×10^-7 M deuterated (d7) S1P in methanol) was added, the BSA was precipitated with trichloroacetic acid and the bound S1P extracted with methanol. S1P and S1P-d7 were measured by liquid chromatography mass spectrometry. Inhibitor potency at the human SPNS2 ortholog was determined by an analogous assay using U-937 cells, which endogenously express human SPNS2.
As for `CCCCCCCCc1ccc(CCc2noc(CCCN)n2)cc1` [Compound 5s, 3-(3-(4-octylphenethyl)-1,2,4-oxadiazol-5-yl)propan-1-amine hydrochloride], the IC50 was above 2000 nM. `CCCCCCCCCOc1ccc(-c2noc(CCCN)n2)cc1` [Compound 5t, 3-(3-(4-(nonyloxy)phenyl)-1,2,4-oxadiazol-5-yl)propan-1-amine hydrochloride]: the IC50 is above 2000 nM. As for `CCCCCCCCCOc1ccc(-c2noc(CCCN)n2)cc1C(F)(F)F` [Compound 5u, 3-(3-(4-(nonyloxy)-3-(trifluoromethyl)phenyl)-1,2,4-oxadiazol-5-yl)propan-1-amine hydrochloride], the figure is above 2000 nM; as for `CCCCCCCCCOc1ccc(-c2noc(CCCN)n2)cc1F` [Compound 5v, 3-(3-(3-fluoro-4-(nonyloxy)phenyl)-1,2,4-oxadiazol-5-yl)propan-1-amine hydrochloride], at most 2000 nM.

Take `CCCCCCCOc1ccc2cc(-c3noc(CCCN)n3)ccc2c1` [Compound 5w, 3-(3-(6-(heptyloxy)naphthalen-2-yl)-1,2,4-oxadiazol-5-yl)propan-1-amine hydrochloride]: the IC50 is at most 2000 nM. Consider `CCCCCCCOc1ccc2cc(-c3noc([C@@H]4CCNC4)n3)ccc2c1` [Compound 5x, (R)-3-(6-(heptyloxy)naphthalen-2-yl)-5-(pyrrolidin-3-yl)-1,2,4-oxadiazole hydrochloride], for which the 50% inhibitory concentration (IC50) was above 2000 nM. For `CCCCCCCCCCc1ccc(-c2noc(CC[C@@H](N)C(=O)O)n2)cc1` [Compound 5y, (R)-2-amino-4-(3-(4-decylphenyl)-1,2,4-oxadiazol-5-yl)butanoic acid hydrochloride], the concentration for half-maximal inhibition (IC50) is above 2000 nM. For `CCCCCCCCCCc1ccc(-c2noc(CC(O)CN3CCCCC3)n2)cc1` (stereo not shown) [Compound 6a, 1-(3-(4-decylphenyl)-1,2,4-oxadiazol-5-yl)-3-(piperidin-1-yl)propan-2-ol hydrochloride] the value was above 2000 nM; for `CCCCCCCCCCc1ccc(-c2noc(CC(O)CN3CCCC3)n2)cc1` (stereo not shown) [Compound 6b, 1-(3-(4-decylphenyl)-1,2,4-oxadiazol-5-yl)-3-(pyrrolidin-1-yl)propan-2-ol hydrochloride], above 2000 nM; for `CCCCCCCCCCc1ccc(-c2noc(CC(O)CN3CCOCC3)n2)cc1` (stereo not shown) [Compound 6c, 1-(3-(4-decylphenyl)-1,2,4-oxadiazol-5-yl)-3-morpholinopropan-2-ol hydrochloride], above 2000 nM.

On to `CCCCCCCCCCc1ccc(-c2noc(CCCN3CCCC3)n2)cc1` [Compound 6d, 3-(4-decylphenyl)-5-(3-(pyrrolidin-1-yl)propyl)-1,2,4-oxadiazole hydrochloride], for which the IC50 is above 2000 nM.

`CCCCCCCCCCc1ccc(-c2noc(CCCN3CCCCC3)n2)cc1` [Compound 6e, 3-(4-decylphenyl)-5-(3-(piperidin-1-yl)propyl)-1,2,4-oxadiazole hydrochloride]: the 50% inhibitory concentration (IC50) is above 2000 nM.

For `CCCCCCCCCCc1ccc(-c2noc(CCCN3CCOCC3)n2)cc1` [Compound 6f, 4-(3-(3-(4-decylphenyl)-1,2,4-oxadiazol-5-yl)propyl)morpholine hydrochloride], the IC50 was above 2000 nM.

Turning to `CCCCCCCCCCc1ccc(-c2noc(CC(O)CNCC)n2)cc1` (stereo not shown) [Compound 7a, 1-(3-(4-decylphenyl)-1,2,4-oxadiazol-5-yl)-3-(ethylamino)propan-2-ol hydrochloride], the IC50 was above 2000 nM. For `CCCCCCCCCCc1ccc(-c2noc(CC(O)CN(C)C)n2)cc1` (stereo not shown) [Compound 7b, 1-(3-(4-decylphenyl)-1,2,4-oxadiazol-5-yl)-3-(dimethylamino)propan-2-ol hydrochloride] the value was above 2000 nM; for `CCCCCCCCCCc1ccc(-c2noc(CNC(=O)[C@H](C)N)n2)cc1` [Compound 9a, (S)-2-amino-N-((3-(4-decylphenyl)-1,2,4-oxadiazol-5-yl)methyl)propanamide hydrochloride], at most 2000 nM.
